Assay results: ChEMBL document CHEMBL1201862, “PubChem BioAssay data set” (2004)
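All cell lines were grown in 96-well plates and treated with compound for 48 hours. Here, GI50 denotes the concentration required for 50% inhibition of growth.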 Calls of active or inactive are those of the source. No stated cut-off is given here; in the data, active = GI50 up to about 1.1 µM and inactive = higher.

Key:
Experiment in all cases: inhibition of tumour cell growth, NCI panel, 48 h
SN12C = test system: SN12C
SK-MEL-28 = test system: SK-MEL-28
SF-268 = test system: SF-268
U-251 = test system: U-251
NCI-H226 = test system: NCI-H226
OVCAR-5 = test system: OVCAR-5
CCRF-CEM = test system: CCRF-CEM
RXF 393 = test system: RXF 393
M14 = test system: M14
SF-295 = test system: SF-295
TK-10 = test system: TK-10
786-0 = test system: 786-0
CAKI-1 = test system: CAKI-1
LOX IMVI = test system: LOX IMVI
RPMI-8226 = test system: RPMI-8226
NCI-H522 = test system: NCI-H522

Row | Structure (SMILES) | GI50 (SN12C) | GI50 (SK-MEL-28) | GI50 (SF-268) | GI50 (U-251) | GI50 (NCI-H226) | GI50 (OVCAR-5) | GI50 (CCRF-CEM) | GI50 (RXF 393) | GI50 (M14) | GI50 (SF-295) | GI50 (TK-10) | GI50 (786-0) | GI50 (CAKI-1) | GI50 (LOX IMVI) | GI50 (RPMI-8226) | GI50 (NCI-H522)
1 | COc1cc(C(C)c2cc3c(cc2OCCN)OCO3)cc(OC)c1OC (centres undefined) | > 100 µM (inactive) | 28.2 µM (inactive) | 73.8 µM (inactive) | 42.5 µM (inactive) | 32.1 µM (inactive) | 46.6 µM (inactive) | 35.2 µM (inactive) | 21.8 µM (inactive) | > 100 µM (inactive) | > 100 µM (inactive) | 73.5 µM (inactive) | > 100 µM (inactive) | > 100 µM (inactive) | > 100 µM (inactive) | 37.3 µM (inactive) | 78.5 µM (inactive)
2 | COc1ccc(N2C(=O)C3c4[nH]c5ccc(OC)cc5c4C4CCC(C(C)(C)C)CC4C3C2=O)cc1 (centres undefined) | 38.2 µM (inactive) | 23.2 µM (inactive) | 14.3 µM (inactive) | 17.5 µM (inactive) | 30.5 µM (inactive) | > 100 µM (inactive) | 58.6 µM (inactive) | 16.1 µM (inactive) | 19.9 µM (inactive) | 9.51 µM (inactive) | 33.3 µM (inactive) | 16.8 µM (inactive) | 42.6 µM (inactive) | 34.2 µM (inactive) | 57.1 µM (inactive) | 20.7 µM (inactive)
3 | Cn1c(C2CCCc3c2c2ccccc2n3C)cc2ccccc21 (centres undefined) | 222 µM (inactive) | 114 µM (inactive) | 110 µM (inactive) | 174 µM (inactive) | 216 µM (inactive) | 136 µM (inactive) | 140 µM (inactive) | 95.1 µM (inactive) | – | 70 µM (inactive) | > 318 µM (inactive) | > 318 µM (inactive) | 115 µM (inactive) | 130 µM (inactive) | – | 40.4 µM (inactive)
4 | CCCCCCCCCC[C@@H](O)[C@@H]1CC[C@H]([C@H]2CC[C@@H]([C@@H](O)CCCCCCCCCC[C@H]3CC(CC(C)=O)C(=O)O3)O2)O1 (some centres undefined) | 10.3 µM (inactive) | 9.35 µM (inactive) | 1.62 µM (inactive) | 15 µM (inactive) | 3.09 µM (inactive) | 18 µM (inactive) | 3.07 µM (inactive) | – | 11.8 µM (inactive) | – | 12.6 µM (inactive) | 11.4 µM (inactive) | 16.7 µM (inactive) | 10.2 µM (inactive) | 1.01 µM (active) | 0.0324 µM (active)
5 | N=C(N)Cn1cnc2ccccc21 | > 100 µM (inactive) | > 100 µM (inactive) | > 100 µM (inactive) | > 100 µM (inactive) | > 100 µM (inactive) | > 100 µM (inactive) | > 100 µM (inactive) | > 100 µM (inactive) | > 100 µM (inactive) | > 100 µM (inactive) | > 100 µM (inactive) | > 100 µM (inactive) | – | > 100 µM (inactive) | > 100 µM (inactive) | > 100 µM (inactive)
6 | Cc1nnc2n1N=C(CC(=O)c1ccc(O)cc1O)CN2N | > 100 µM (inactive) | > 100 µM (inactive) | > 100 µM (inactive) | > 100 µM (inactive) | – | > 100 µM (inactive) | > 100 µM (inactive) | > 100 µM (inactive) | > 100 µM (inactive) | > 100 µM (inactive) | > 100 µM (inactive) | > 100 µM (inactive) | > 100 µM (inactive) | 68.9 µM (inactive) | – | –
7 | O=C(O)C1CCC(=O)N1C(=O)C(Cl)c1ccccc1 (centres undefined) | > 100 µM (inactive) | > 100 µM (inactive) | > 100 µM (inactive) | > 100 µM (inactive) | > 100 µM (inactive) | > 100 µM (inactive) | > 100 µM (inactive) | – | > 100 µM (inactive) | > 100 µM (inactive) | > 100 µM (inactive) | > 100 µM (inactive) | > 100 µM (inactive) | > 100 µM (inactive) | > 100 µM (inactive) | > 100 µM (inactive)
8 | COc1ccc(C(=O)Nc2ccccc2C#N)cc1 | > 100 µM (inactive) | > 100 µM (inactive) | > 100 µM (inactive) | > 100 µM (inactive) | – | > 100 µM (inactive) | > 100 µM (inactive) | > 100 µM (inactive) | – | > 100 µM (inactive) | > 100 µM (inactive) | > 100 µM (inactive) | > 100 µM (inactive) | > 100 µM (inactive) | > 100 µM (inactive) | –
9 | N=c1c2ccccc2sc2nc3ccccc3n12 | > 100 µM (inactive) | > 100 µM (inactive) | > 100 µM (inactive) | > 100 µM (inactive) | 57.9 µM (inactive) | > 100 µM (inactive) | > 100 µM (inactive) | > 100 µM (inactive) | – | > 100 µM (inactive) | > 100 µM (inactive) | 97.5 µM (inactive) | 48.6 µM (inactive) | > 100 µM (inactive) | – | 71.3 µM (inactive)
10 | COc1ccc(C2[C@@H](Cl)C(=O)N2c2ccc(OC)cc2)cc1 (some centres undefined) | > 100 µM (inactive) | > 100 µM (inactive) | > 100 µM (inactive) | > 100 µM (inactive) | > 100 µM (inactive) | > 100 µM (inactive) | 39.1 µM (inactive) | 22.4 µM (inactive) | – | 28.7 µM (inactive) | > 100 µM (inactive) | 36.6 µM (inactive) | 30.4 µM (inactive) | – | 98.6 µM (inactive) | 36 µM (inactive)
11 | NC1CCCCC1.O=C(O)C(CP(=O)(O)O)=C(Cl)Cl | > 100 µM (inactive) | > 100 µM (inactive) | > 100 µM (inactive) | > 100 µM (inactive) | > 100 µM (inactive) | > 100 µM (inactive) | > 100 µM (inactive) | > 100 µM (inactive) | – | > 100 µM (inactive) | > 100 µM (inactive) | > 100 µM (inactive) | – | > 100 µM (inactive) | > 100 µM (inactive) | –
12 | Nc1ccc2n[se]nc2c1 | > 100 µM (inactive) | > 100 µM (inactive) | > 100 µM (inactive) | > 100 µM (inactive) | – | > 100 µM (inactive) | > 100 µM (inactive) | > 100 µM (inactive) | > 100 µM (inactive) | > 100 µM (inactive) | 23.8 µM (inactive) | > 100 µM (inactive) | > 100 µM (inactive) | 29.6 µM (inactive) | > 100 µM (inactive) | –
13 | Cc1c2c(ccc3ccccc32)c[n+]2ccccc12 | – | 15.7 µM (inactive) | 2.01 µM (inactive) | 2.03 µM (inactive) | 5.3 µM (inactive) | 55.7 µM (inactive) | 11 µM (inactive) | – | 19.7 µM (inactive) | 3.78 µM (inactive) | > 100 µM (inactive) | 10.1 µM (inactive) | > 100 µM (inactive) | – | 32.1 µM (inactive) | 4.79 µM (inactive)
14 | C=CCN1C(=O)C(=O)N(CC=C)C(=O)C1=O | > 100 µM (inactive) | – | > 100 µM (inactive) | > 100 µM (inactive) | > 100 µM (inactive) | > 100 µM (inactive) | > 100 µM (inactive) | > 100 µM (inactive) | > 100 µM (inactive) | > 100 µM (inactive) | > 100 µM (inactive) | > 100 µM (inactive) | > 100 µM (inactive) | > 100 µM (inactive) | > 100 µM (inactive) | > 100 µM (inactive)
